Test results reported in US7772241B2, “Variolin derivatives and their use as antitumor agents” (Pharma Mar S.A., priority 2001, dated 2010).
Like-named read-outs stand apart in the source and are kept apart here.

Columns and labels:
A-549 = experiment: Inhibition of cells growth by colorimetric (SRB) assay, A-549
Procedure, shortened: (§1)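 Read-out is sulforhodamine B protein stain (OD 490 nm) after cold TCA fixation, following 48 h continuous exposure to samples spanning 10 to 10^−8 μg/ml.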

HT-29 = experiment: Inhibition of cells growth by colorimetric (SRB) assay, HT-29
Procedure, shortened: as §1

[1] = Inhibition of cells growth by colorimetric (SRB) assay, HMEC1; conditions: human, HMEC1 cells, LC50 H-MEC-1, SRB assay, 48 hours exposure
From the text: (§2) The finality of these assays is to interrupt the growth of a “in vitro” tumor cell culture by means a continued exhibition of the cells to the sample to be testing.
(§3) This form of the assay employs 96 well cell culture microplates of 9 mm diameter (Faircloth, 1988; Mosmann, 1983). Most of the cell lines are obtained from American Type Culture Collection (ATCC) derived from different human cancer types.
(§4) Cells are maintained in RPMI 1640 10% FBS, supplemented with 0.1 g/l penicillin and 0.1 g/l streptomycin sulphate and then incubated at 37° C., 5% CO2 and 98% humidity. For the experiments, cells were harvested from subconfluent cultures using trypsin and resuspended in fresh medium before plating.
(§5) Cells are seeded in 96 well microtiter plates, at 5×10^3 cells per well in aliquots of 195 μl medium, and they are allowed to attach to the plate surface by growing in drug free medium for 18 hours. Afterward, samples are added in aliquots of 5 μl in a ranging from 10 to 10^−8 μg/ml, dissolved in DMSO/EtOH/PBS (0.5:0.5:99). After 48 hours exposure, the antitumor effect are measured by the SRB methodology: cells are fixed by adding 50 μl of cold 50% (wt/vol) trichloroacetic acid (TCA) and incubating for 60 minutes at 4° C. Plates are washed with deionized water and dried. One hundred μl of SRB solution (0.4% wt/vol in 1% acetic acid) is added to each microtiter well and incubated for 10 minutes at room temperature. Unbound SRB is removed by washing with 1% acetic acid. Plates are air dried and bound stain is solubilized with Tris buffer. Optical densities are read on a automated spectrophotometric plate reader at a single wavelength of 490 nm.
(§6) The values for mean +/−SD of data from triplicate wells are calculated. Some parameters for cellular responses can be calculated: GI=growth inhibition, TGI=total growth inhibition (cytostatic effect) and LC=cell killing (cytotoxic effect).

HMEC1 = experiment: as above; conditions: for TGI H-MEC-1: in M (unit assumed); for CC50: read-out: LC50 H-MEC-1
From the text: as §2, §3, §4, §5, §6

K-562 = experiment: Inhibition of cells growth by colorimetric (SRB) assay, K-562; conditions: for GI50: read-out: GI50 K-562
Procedure, shortened: as §1

SK-MEL-28 = experiment: Inhibition of cells growth by colorimetric (SRB) assay, SK-MEL-28
Procedure, shortened: as §1

LoVo = experiment: Inhibition of cells growth by colorimetric (SRB) assay, LoVo; conditions: for CC50: read-out: LC50 LOVO
Procedure, shortened: as §1

LoVo-Dox = experiment: Inhibition of cells growth by colorimetric (SRB) assay, LoVo-Dox
Procedure, shortened: as §1

DU-145 = experiment: Inhibition of cells growth by colorimetric (SRB) assay, DU-145
Procedure, shortened: as §1

LNCaP = experiment: Inhibition of cells growth by colorimetric (SRB) assay, LNCaP; conditions: for GI50: read-out: GI50 LN-caP
Procedure, shortened: as §1

SK-BR-3 = experiment: Inhibition of cells growth by colorimetric (SRB) assay, SK-BR-3
Procedure, shortened: as §1

IGROV-1 = experiment: Inhibition of cells growth by colorimetric (SRB) assay, IGROV-1
Procedure, shortened: as §1

IGROV-ET = experiment: Inhibition of cells growth by colorimetric (SRB) assay, IGROV-ET
Procedure, shortened: as §1

SK-OV-3 = experiment: Inhibition of cells growth by colorimetric (SRB) assay, SK-OV-3
Procedure, shortened: as §1

PANC-1 = experiment: Inhibition of cells growth by colorimetric (SRB) assay, PANC-1; conditions: for TGI PANC-1 / GI50: SRB assay, 48 hours exposure; for GI50: read-out: GI50 PANC-1
Procedure, shortened: as §1

[2] = Homo sapiens, A549, 48 h, read-out: GI50 A-549, SRB assay, 48 hours exposure
[3] = Homo sapiens, A549, 48 h, read-out: LC50 A-549, SRB assay, 48 hours exposure
[4] = Homo sapiens, HT-29, 48 h, read-out: GI50 HT-29, SRB assay, 48 hours exposure
[5] = Homo sapiens, HT-29, 48 h, read-out: LC50 HT-29, SRB assay, 48 hours exposure
[6] = Homo sapiens, HMEC-1, 48 h, read-out: GI50 H-MEC-1, SRB assay, 48 hours exposure
[7] = read-out: GI50 A-549, SRB assay, 48 hours exposure
[8] = read-out: GI50 HT-29, SRB assay, 48 hours exposure

COc1nccc(-c2c3c(OCc4ccccc4)ccnc3n3c(N)nccc23)n1 [Compound 102]
GI50 (A-549; [2]): 25.1 µM
CC50 (A-549; [3]): 25.1 µM
TGI A-549 (A-549; SRB assay, 48 hours exposure): 2.51E−05
GI50 (HT-29; [4]): 25.1 µM
CC50 (HT-29; [5]): 25.1 µM
TGI HT-29 (HT-29; SRB assay, 48 hours exposure): 2.51E−05
CC50 at 48 h [1]: 19.7 µM
GI50 (HMEC1; [6]): 6 µM
TGI H-MEC-1 (HMEC1; SRB assay, 48 hours exposure): 1.09E−05

CSc1nccc(-c2c3c(Cl)ccnc3n3c(SC)nccc23)n1 [Compound 84]
GI50 (A-549; [2]): 26.7 µM
CC50 (A-549; [3]): 26.7 µM
TGI A-549 (A-549; SRB assay, 48 hours exposure): 2.67E−05
GI50 (HT-29; [4]): 26.7 µM
CC50 (HT-29; [5]): 26.7 µM
TGI HT-29 (HT-29; SRB assay, 48 hours exposure): 2.67E−05
CC50 at 48 h [1]: 26.7 µM
GI50 (HMEC1; [6]): 26.7 µM
TGI H-MEC-1 (HMEC1; SRB assay, 48 hours exposure): 2.67E−05

Cc1ccc2c(-c3ccnc(N)n3)c3ccnc(N)n3c2n1.Cl [Compound 44]
CC50 (K-562; Homo sapiens, K562, 48 h, read-out: LC50 K-562, SRB assay, 48 hours exposure): 27.5 µM
TGI K-562 (K-562; SRB assay, 48 hours exposure): 2.75E−05
GI50 (K-562; SRB assay, 48 hours exposure): 4.17 µM
CC50 (A-549; [3]): 27.5 µM
TGI A-549 (A-549; SRB assay, 48 hours exposure): 2.75E−05
GI50 (A-549; [7]): 9.17 µM
GI50 (SK-MEL-28; Homo sapiens, SK-MEL-28, 48 h, read-out: GI50 MEL-28, SRB assay, 48 hours exposure): 0.601 µM
CC50 (SK-MEL-28; Homo sapiens, SK-MEL-28, 48 h, read-out: LC50 MEL-28, SRB assay, 48 hours exposure): 8.95 µM
TGI MEL-28 (SK-MEL-28; SRB assay, 48 hours exposure): 2.11E−06
CC50 (HT-29; [5]): 27.5 µM
TGI HT-29 (HT-29; SRB assay, 48 hours exposure): 1.09E−05
GI50 (HT-29; [8]): 1.09 µM
GI50 (LoVo; Homo sapiens, LoVo, 48 h, read-out: GI50 LOVO, SRB assay, 48 hours exposure): 0.456 µM
TGI LOVO (LoVo; SRB assay, 48 hours exposure): 1.13E−06
CC50 (LoVo; SRB assay, 48 hours exposure): 2.75 µM
GI50 (LoVo-Dox; Homo sapiens, 48 h, read-out: GI50 LOVO-DOX, SRB assay, 48 hours exposure): 0.777 µM
CC50 (LoVo-Dox; Homo sapiens, 48 h, read-out: LC50 LOVO-DOX, SRB assay, 48 hours exposure): 23.5 µM
TGI LOVO-DOX (LoVo-Dox; SRB assay, 48 hours exposure): 3.27E−06
GI50 (DU-145; Homo sapiens, DU-145, 48 h, read-out: GI50 DU-145, SRB assay, 48 hours exposure): 0.475 µM
TGI DU-145 (DU-145; SRB assay, 48 hours exposure): 1.51E−06
TGI LN-caP (LNCaP; SRB assay, 48 hours exposure): 7.85E−07
GI50 (LNCaP; SRB assay, 48 hours exposure): 0.351 µM
CC50 (LNCaP; read-out: LC50 LN-caP, SRB assay, 48 hours exposure): 1.76 µM
GI50 (SK-BR-3; Homo sapiens, SK-BR-3, 48 h, read-out: GI50 SK-BR-3, SRB assay, 48 hours exposure): 0.612 µM
CC50 (SK-BR-3; Homo sapiens, SK-BR-3, 48 h, read-out: LC50 SK-BR-3, SRB assay, 48 hours exposure): 6.31 µM
TGI SK-BR-3 (SK-BR-3; SRB assay, 48 hours exposure): 1.61E−06
GI50 (IGROV-1; Homo sapiens, IGROV-1, 48 h, read-out: GI50 IGROV, SRB assay, 48 hours exposure): 1.08 µM
CC50 (IGROV-1; Homo sapiens, IGROV-1, 48 h, read-out: LC50 IGROV, SRB assay, 48 hours exposure): 24.6 µM
TGI IGROV (IGROV-1; SRB assay, 48 hours exposure): 6.34E−06
GI50 (IGROV-ET; Homo sapiens, 48 h, read-out: GI50 IGROV-ET, SRB assay, 48 hours exposure): 0.568 µM
CC50 (IGROV-ET; Homo sapiens, 48 h, read-out: LC50 IGROV-ET, SRB assay, 48 hours exposure): 17.2 µM
TGI IGROV-ET (IGROV-ET; SRB assay, 48 hours exposure): 1.87E−06
CC50 (SK-OV-3; Homo sapiens, SK-OV-3, 48 h, read-out: LC50 SKOV-3, SRB assay, 48 hours exposure): 27.5 µM
TGI SKOV-3 (SK-OV-3; SRB assay, 48 hours exposure): 2.75E−05
CC50 (PANC-1; Homo sapiens, PANC-1, 48 h, read-out: LC50 PANC-1, SRB assay, 48 hours exposure): 27.5 µM
TGI PANC-1 (PANC-1): 9.94E−06
GI50 (PANC-1): 1.71 µM
GI50 (HMEC1; [6]): 0.158 µM
TGI H-MEC-1 (HMEC1; SRB assay, 48 hours exposure): 3.07E−07
CC50 (HMEC1; SRB assay, 48 hours exposure): 1.31 µM

COc1nccc(-c2c3cccnc3n3c(N)nccc23)n1 [Compound 76]
TGI K-562 (K-562; SRB assay, 48 hours exposure): 2.28E−06
GI50 (K-562; SRB assay, 48 hours exposure): 1.02 µM
CC50 (K-562; read-out: LC50 K-562, SRB assay, 48 hours exposure): 5.92 µM
TGI A-549 (A-549; SRB assay, 48 hours exposure): 1.49E−06
GI50 (A-549; [7]): 0.407 µM
CC50 (A-549; read-out: LC50 A-549, SRB assay, 48 hours exposure): 7.7 µM
TGI MEL-28 (SK-MEL-28; SRB assay, 48 hours exposure): 8.01E−07
GI50 (SK-MEL-28; read-out: GI50 MEL-28, SRB assay, 48 hours exposure): 0.359 µM
CC50 (SK-MEL-28; read-out: LC50 MEL-28, SRB assay, 48 hours exposure): 1.79 µM
TGI HT-29 (HT-29; SRB assay, 48 hours exposure): 3.42E−06
GI50 (HT-29; [8]): 0.77 µM
CC50 (HT-29; read-out: LC50 HT-29, SRB assay, 48 hours exposure): ≥ 34.2 µM
TGI LOVO (LoVo; SRB assay, 48 hours exposure): 6.81E−07
GI50 (LoVo; read-out: GI50 LOVO, SRB assay, 48 hours exposure): 0.163 µM
CC50 (LoVo; SRB assay, 48 hours exposure): ≥ 34.2 µM
TGI LOVO-DOX (LoVo-Dox; SRB assay, 48 hours exposure): 3.42E−07
GI50 (LoVo-Dox; read-out: GI50 LOVO-DOX, SRB assay, 48 hours exposure): 0.773 µM
CC50 (LoVo-Dox; read-out: LC50 LOVO-DOX, SRB assay, 48 hours exposure): ≥ 34.2 µM
TGI DU-145 (DU-145; SRB assay, 48 hours exposure): 1.42E−06
GI50 (DU-145; read-out: GI50 DU-145, SRB assay, 48 hours exposure): 0.542 µM
CC50 (DU-145; read-out: LC50 DU-145, SRB assay, 48 hours exposure): 3.42 µM
CC50 (LNCaP; Homo sapiens, LNCaP, 48 h, read-out: LC50 LN-caP, SRB assay, 48 hours exposure): 3.08 µM
TGI LN-caP (LNCaP; SRB assay, 48 hours exposure): 4.55E−07
GI50 (LNCaP; SRB assay, 48 hours exposure): 0.0729 µM
TGI SK-BR-3 (SK-BR-3; SRB assay, 48 hours exposure): 1.21E−06
GI50 (SK-BR-3; read-out: GI50 SK-BR-3, SRB assay, 48 hours exposure): 0.541 µM
CC50 (SK-BR-3; read-out: LC50 SK-BR-3, SRB assay, 48 hours exposure): 2.71 µM
TGI IGROV (IGROV-1; SRB assay, 48 hours exposure): 1.77E−06
GI50 (IGROV-1; read-out: GI50 IGROV, SRB assay, 48 hours exposure): 0.725 µM
CC50 (IGROV-1; read-out: LC50 IGROV, SRB assay, 48 hours exposure): 3.42 µM
TGI IGROV-ET (IGROV-ET; SRB assay, 48 hours exposure): 2.04E−06
GI50 (IGROV-ET; read-out: GI50 IGROV-ET, SRB assay, 48 hours exposure): 0.649 µM
CC50 (IGROV-ET; read-out: LC50 IGROV-ET, SRB assay, 48 hours exposure): ≥ 34.2 µM
GI50 (SK-OV-3; Homo sapiens, SK-OV-3, 48 h, read-out: GI50 SKOV-3, SRB assay, 48 hours exposure): 1.22 µM
TGI SKOV-3 (SK-OV-3; SRB assay, 48 hours exposure): 3.42E−06
CC50 (SK-OV-3; read-out: LC50 SKOV-3, SRB assay, 48 hours exposure): 34.3 µM
TGI PANC-1 (PANC-1): 2.15E−06
GI50 (PANC-1): 0.65 µM
TGI H-MEC-1 (HMEC1; SRB assay, 48 hours exposure): 2.27E−07
GI50 (HMEC1; read-out: GI50 H-MEC-1, SRB assay, 48 hours exposure): 0.0777 µM
CC50 (HMEC1; SRB assay, 48 hours exposure): 1.56 µM
